Laboratory results: patent US7879835B2 (Korea Research Institute of Chemical Technology, priority 2004, dated 2011)

Columns and labels:
[1] = tested on: osteoclast (TRAP-positive multinuclear cell) formation; experiment: Inhibitory effect on osteoclast formation (TRAP staining); format: cell-based, mice; conditions: 8 days culture with M-CSF and RANKL, compared to control
Method: The inhibitory activities of the alpha-arylmethoxyacrylate derivatives prepared in the above Examples on the proliferation of osteoclasts were examined as follows.
First, a bone marrow sample containing osteoclast pregenitor cells was isolated as follows. After sacrificing 7 to 9 week-old female mice by cervical dislocation, femur and tibia were excised aseptically while removing soft tissues attached thereto, After cutting both ends of the long bones, 1 ml of an enzyme solution containing 0.1% collagenase (Gibco), 0.05% trypsin and 0.5 mM EDTA (Gibco) was injected into the bone marrow cavity at one end using a syringe with a 26-gauge needle, and the bone marrow was then collected. After stirring the recovered bone marrow for 30 min, the precipitated bone marrow cells were collected, and cultured in α-minimum essential medium (α-MEM) supplemented with 10% FBS for 24 hrs. Then, non-adherent cells, which are osteoclast pregenitors, were aliquoted onto a culture plate at a density of 2×10^5 cells per well, and cultured for 8 days in α-MEM supplemented with 20 ng/ml of macrophage-colony stimulating factor (M-CSF, Peprotech, USA), 30 ng/ml RANKL (Peprotech, USA), and 0.3, 1.0 or 3 μM of the compounds of the Examples. Control cells were cultured at the same condition except not adding the compounds of the Examples.
After cell culture for 8 days, the adherent cells were washed with PBS and fixed with citrate-acetate-formaldehyde for 5 min. The fixed cells were incubated at 37° C. for 1 hr in acetate buffer (pH 5.0) containing naphthol AS-BI phosphate, fast Garnet GBC solution and 7 mM tartrate buffer (pH 5.0) to conduct TRAP (tartrate-resistant acid phosphatase) staining.

MG-63 cells = experiment: Cytotoxicity test against osteoblast (MTT); format: cell-based, human
Method: (§1) In order examine the toxicities of the compounds of the Examples against osteoclast pregenitors, pregenitor cells were aliquotted onto a 96-well microplate at a density of 2×10^5 cells per well, treated with 2, 4 and 8 μM of the test compounds, respectively, and cultured for 48 hrs in α-MEM supplemented with 20 ng/ml of M-CSF (Peprotech, USA) using 37° C. incubator (5% CO2). At 3 hrs before the culture was finished, 50 μl of MTT (3-(4,5-dimethylthiazol-2-yl)-2,5-diphenyltetrazolium bromide) solution (50 μg/ml) was added to each well. Upon completion of the cell culture, the supernatant was removed, and the precipitated dye was reacted with 100 μl of isopropanol/0.04 N HCl at room temperature for 30 min to dissolve it. The absorbances of the wells were measured at 550 nm, and the relative absorbance of each well relative to that of the control (set as 100) is shown in Table 6.
In order to examine the toxicity of the compounds of the Examples against osteoblasts, human osteosarcoma-derived cell line, MG-63 (ATCC No. CRL-1427) cells were treated with 0.1, 0.3, 1.0 and 3.0 μM of the compounds of the Examples, and cultured in DMEM supplemented with 10% FBS (fetal bovine serum).

osteoclasts = experiment: Inhibitory effect on resorption activity of osteoclast (resorption pit area on calcium phosphate-coated plate); format: cell-based, mice; conditions: compared to control
Method: After finishing culture, the plate was washed with distilled water, and 50 μl/well of 5% sodium hypochlorite was added to the plate. The plate was let alone for 5 min, washed again with distilled water to remove the adherent cells, and dried at room temperature. Then, the area of formed resorption pits was calculated by means of Image Pro Plus software (Media Cybernetics Ver. 3.0).

[2] = tested on: osteoclast pregenitor cells; experiment: Cytotoxicity against osteoclast pregenitor (MTT); format: cell-based, mice; conditions: 48 hrs, absorbance at 550 nm
Method: as §1

Compound	Osteoclast formation inhibitory effects (%) ([1]; 0.3 μM)	Osteoclast formation inhibitory effects (%) ([1]; 1.0 μM)	Osteoclast formation inhibitory effects (%) ([1]; 3.0 μM)	relative absorbance relative to that of the control (set as 100), MTT (MG-63 cells; 0.33 uM)	relative absorbance relative to that of the control (set as 100), MTT (MG-63 cells; 1 uM)	relative absorbance relative to that of the control (set as 100), MTT (MG-63 cells; 3 uM)	Reduction (%) of the resorption pit area of osteoclasts (osteoclasts; 1 uM) [%]	Reduction (%) of the resorption pit area of osteoclasts (osteoclasts; 3 uM) [%]	relative absorbance relative to that of the control (set as 100), MTT (MG-63 cells; 0.11 uM)	Reduction (%) of the resorption pit area of osteoclasts (osteoclasts; 0.3 uM) [%]	relative absorbance relative to that of the control (set as 100), MTT ([2]; 2 uM)	relative absorbance relative to that of the control (set as 100), MTT ([2]; 4 uM)	relative absorbance relative to that of the control (set as 100), MTT ([2]; 8 uM)
CO/C=C(/C(=O)OC)c1ccccc1CON=C(C)c1cccc(OCCN2CCOCC2)c1 [compound 20]	12	34	100	106	106	105	26	47					
CO/C=C(/C(=O)OC)c1ccccc1COc1cccc(C(OC)OC)c1 [compound 133]	16	95	100	108	107	103	99	100	103	75	93	104	102
C=CCCCCCCOc1cccc(OCc2ccccc2/C(=C\OC)C(=O)OC)c1 [compound 197]	100	100	100	101	111	103	100	100	112	100			
CO/C=C(/C(=O)OC)c1ccccc1COc1cccc(C(F)CC(C)(F)F)c1 (centres unmarked) [compound 205]	90	100	100				100	100			101	109	104
CO/C=C(/C(=O)OC)c1ccccc1COc1cccc(C(F)CC(C)=O)c1 (centres unmarked) [compound 206]	35	100	100				100	100		97	102	102	108
CO/C=C(/C(=O)OC)c1ccccc1COc1cccc(OCC2CC2)c1 [compound 215]	51	100	100				100	100		97	96	102	107
CO/C=C(/C(=O)OC)c1ccccc1COc1cccc(OCC=C(C)C)c1 [compound 217]	94	100	100				100	100			90	96	107
